Experimental data taken from patent US4708966A, “Novel anti-inflammatory agents, pharmaceutical compositions and methods for reducing inflammation” (The Procter & Gamble Company, priority 1986, dated 1987).

Assays:
osteoarthritis = assay: tablets in a patient suffering from osteoarthritis; format: in vivo; conditions: tablet, 200 mg Compound 11, twice daily
Experimental: (§1) Pharmaceutical Compositions in Tablet Form
(§2) Tablets are prepared by conventional methods, such as mixing and direct compaction, formulated as follows: […]

cyclooxygenase ("COX") = assay: inhibition of cyclooxygenase in arachidonic acid metabolism; format: biochemical
[1] = gastric damage / gastrointestinal irritation; format: in vivo; conditions: levels significantly greater than the therapeutic dose, test animals
[2] = system: rheumatoid arthritis or osteoarthritis; assay: capsules in a patient afflicted with rheumatoid arthritis or osteoarthritis; format: in vivo; conditions: capsule, 200 mg Compound 11, oral, once a day
Experimental: Pharmaceutical Compositions in Capsule Form
Capsules are prepared by conventional methods, comprised as follows: […]

[3] = oral anti-pyretic activity; format: in vivo
Experimental: (§3) In order to determine and assess pharmacological activity, testing of these compounds in animals is carried out using various assays known to those skilled in the art. […] Examples of such known tests include the carrageenan rat edema test, the oxazolone-induced inflamed mouse ear test, and the arachidonic acid-induced inflamed mouse ear test. Anti-pyretic acitivity may be tested using art-known rat models, and analgesic acitivty may be tested in art-known models such as the acetylcholine model in mice, the Randall-Selitto model in rats, and the hot-plate test in mice. Another useful art-known test is the adjuvant arthritis test which is a useful model for assessing anti-inflammatory activity and anti-resorptive activity in a chronic, rather than acute, model.

[4] = system: arachidonic acid-induced inflamed mouse ear; assay: Arachidonic Acid-Induced Inflamed Mouse Ear Test; format: in vivo, Adult male Cox ICR mice
Experimental: Arachidonic Acid-Induced Inflamed Mouse Ear Test
All drugs are dissolved with arachidonic acid in the vehicle. At the end of 3 hours, animals are sacrificed by cervical dislocation and both ears are removed. A 5 mm punch biopsy is removed from both ears and is weighed to the nearest 0.1 mg on a Cahn electrobalance. Ten animals are used per group. The study usually consists of 4 to 6 groups, of which one is a control group which is treated on the left ear with only arachidonic acid in the vehicle. The results are expressed as percent inhibition of the swelling response compared to the control group. Statistical tests for significance between groups are made using a one way analysis of variance of the ear weight differences. ID50 values are determined by regression analysis.

[5] = system: carrageenan rat paw edema; assay: Carrageenan Rat Paw Edema Test; format: in vivo, Male Sprague-Dawley rats
Experimental: Carrageenan Rat Paw Edema Test
Male Sprague-Dawley rats (Charles River Laboratories) are weighed and food fasted overnight. The animals are then divided into four to six groups of six animals each according to body weights (average about 145 g) so that each group has about the same average body weight (within 10 g).
The following morning animals are dosed with the test compound and then placed in individual cages. For oral dosing, the drug is suspended in 0.5% methyl cellulose with 2% Tween 80, and delivered via stomach tube in a 5 ml volume.
Paw volumes (0 time) are determined on both hind paws with a mercury displacement device equipped with a transducer and digitizer. One hour after dosing the test compound, the animals are placed in a plastic restrainer and 50 ul of a 1% (w/w) carrageenan solution in 0.9% saline is injected into the ventral surface of the left rear paw. Four hours after the carrageenan injection, the paw volumes are again determined.
The results are expressed as percent inhibition of the mean paw volume of the test group relative to the control group. Statistical differences are determined by one way analysis of variance. ID35 values are determined by regression analysis.

[6] = antioxidant and free radical scavenging activity
[7] = system: oxazolone-induced inflamed mouse ear; assay: Oxazolone-Induced Inflamed Mouse Ear Test (Ox-IMET); format: in vivo, Adult male Cox ICR mice; conditions: topical, 25 ul of 10% in ethanol, 24 h after challenge, vs control group, read-out: Percent Inhibition
Experimental: Oxazolone-Induced Inflamed Mouse Ear Test ("Ox-IMET")
Adult male Cox ICR mice, 25-35 g, are sensitized by applying 3% oxazolone in olive oil to the clipped abdomen of each animal using a cotton swab. One week later, the mice are challenged on the inner surface of the left ear with 3% oxazolone in aceotone. At the same time 25 ul of the test compound (10% in ethanol) is applied to the outer surface of the same ear. Twenty four hours after the challenge, the animals are sacrificed by cervical dislocation and both ears are removed. A 5 mm punch biopsy is removed from both ears and is weighed to the nearest 0.1 mg on a Cahn electrobalance. Ten animals are used per group. The study usually consists of 4 to 6 groups, of which one is a control group which is challenged on the left ear, but is not treated with a test compound. The results are expressed as percent inhibition of the swelling response compared to the control group. Statistical tests for significance between groups are made using a one way analysis of variance of the ear weight differences.

[8] = toxicity (acute oral toxicity); format: in vivo; conditions: test animals
rheumatoid arthritis = assay: tablets in a patient suffering from rheumatoid arthritis; format: in vivo; conditions: tablet, 200 mg Compound 11, oral, two times daily
Experimental: as §1, §2

inflammation = assay: anti-inflammatory activity in animal models of inflammation; format: in vivo
Experimental: as §3
These and other appropriate tests for pharmacological activity are disclosed and/or referred to in U.S. Pat. No. 4,130,666, issued Dec. 19, 1978 to Moore; U.S. Pat. No. 4,440,784, issued Apr. 3, 1984 to Katsumi et al.; Japanese patent application No. 85/54315, published Mar. 28, 1985 by Katsumi et al.; European Patent Application Publication No. 59,090, published Sept. 1, 1982 by Yamanouchi Pharmaceutical Co., Ltd.; "Prostaglandin and Leukotriene Synthesis in Mouse Ears Inflamed by Arachidonic Acid", The Journal of Investigative Dermatology, 84, pp. 253-256 (1985); U.S. Pat. No. 4,431,656, issued Feb. […]

lipoxygenase ("LOX") = assay: inhibition of lipoxygenase in arachidonic acid metabolism; format: biochemical

## C#CCCCC(=O)c1cc(C(C)(C)C)c(O)c(C(C)(C)C)c1 [Compound 11, 4-(5'-hexynoyl)-2,6-di-t-butylphenol]
osteoarthritis
  benefit: significant benefit
Cyclooxygenase ("COX")
  inhibition of cyclooxygenase (COX): dual inhibitor
[1]
  gastric damage after oral dosing: very low or no gastric damage
[2]
  reduction of symptomology: substantially reduces the symptomology
[3]
  oral anti-pyretic activity: oral anti-pyretic activity
[4]; Mus musculus, 50 ug/ear topical, 3 hours, read-out: Percent Inhibition at 50 ug/ear topical dose
  inhibition in vivo at 50 µg/ear: 43.9%
[4]; topical, by regression analysis
  ID50: 20.7 ug/ear
[5]; 4 h, oral, by regression analysis, read-out: ID35
  ED35: 4.8 mg/kg
[5]; po, 100 mg/kg P.O., paw volume 4 h after carrageenan, vs control group, read-out: Percent Inhibiton at 100 mg/kg dose P.O
  inhibition in vivo at 100 mg/kg: 67.6%
[6]
  antioxidant and free radical scavenging activity: antioxidant and free radical scavenging activity
[7]
  inhibition in vivo at 10 %: 34.1%
[8]
  acute oral toxicity: very low acute oral toxicity
Rheumatoid arthritis
  reduction of inflammation: significantly reduces the inflammation
inflammation
  oral activity in several animal models of inflammation: very good oral activity
Lipoxygenase ("LOX")
  inhibition of lipoxygenase (LOX): dual inhibitor
